Where two headings read alike, the source gives them in different places. Blank lines part the entries; values can stand above or below the molecule they belong to.
What was measured:
BRPF2 = conditions: ITC data, cited from earlier work
GPRK5 = molecular target: T1, GPRK5 (Homo sapiens, UniProt P34947); assay: Temperature shift assay (protein kinases); format: binding; conditions: 10 μM probe; average of three measurements
T1 construct: Recombinant protein domains (bromodomain or kinases) at a concentration of 2 μM
Protocol: (§1) Temperature shift assays have been described by Fedorov et al.[46]. Recombinant protein domains (bromodomain or kinases) at a concentration of 2 μM in 10 mM HEPES, pH 7.5, and 500 mM NaCl were mixed with 10 μM of chemical probes. Temperature-dependent protein unfolding profiles were measured using a Real-Time PCR Mx3005p machine (Stratagene).

BRAF = molecular target: T2, BRAF (Homo sapiens, UniProt P15056); assay: Temperature shift assay (protein kinases); format: binding; conditions: 10 μM probe; average of three measurements
T2 construct: Recombinant protein domains (bromodomain or kinases) at a concentration of 2 μM
Protocol: as §1

PHGK2 = molecular target: T3, PHGK2 (Homo sapiens, UniProt P15735); assay: Temperature shift assay (protein kinases); format: binding; conditions: 10 μM probe; average of three measurements
T3 construct: Recombinant protein domains (bromodomain or kinases) at a concentration of 2 μM
T3 sequence (P15735 24-291 limits assumed): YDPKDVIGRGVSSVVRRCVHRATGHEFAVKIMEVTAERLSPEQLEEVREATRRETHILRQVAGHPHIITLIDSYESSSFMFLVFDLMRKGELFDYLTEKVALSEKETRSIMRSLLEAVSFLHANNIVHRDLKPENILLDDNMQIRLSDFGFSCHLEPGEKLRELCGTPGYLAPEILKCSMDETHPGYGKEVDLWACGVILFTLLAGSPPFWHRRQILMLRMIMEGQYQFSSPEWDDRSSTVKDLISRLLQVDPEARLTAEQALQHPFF
Protocol: as §1

CBP = molecular target: T4, CBP (Homo sapiens, UniProt Q92793); conditions: ITC data, cited from earlier work
T4 construct: Recombinant protein domains (bromodomain or kinases) at a concentration of 2 μM

ATAD2A = molecular target: T5, ATAD2A (Homo sapiens, UniProt Q6PL18); set-up: purchased; method as in ref 20 (suppl.); conditions: BROMOscan; ref 20 (suppl.); cited from earlier work
T5 sequence (Q6PL18 980-1092 limits assumed): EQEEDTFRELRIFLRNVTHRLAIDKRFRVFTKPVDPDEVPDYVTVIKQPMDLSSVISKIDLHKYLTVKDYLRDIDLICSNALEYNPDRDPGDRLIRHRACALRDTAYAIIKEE

MDA-MB-436 cells = assay: Immunoblot of H3 and H4 acetylation; format: cell-based, human; conditions: BAY-876 treatment
Protocol: Total cell lysates were resolved in 4−12% Bis-Tris protein gels (Invitrogen) with MOPS (3-(N-morpholino)propanesulfonic acid) buffer (Invitrogen) and transferred for 1.5 h (80 V) onto polyvinylidene fluoride membrane (Millipore) in Tris-glycine transfer buffer containing 20% MeOH and 0.05% sodium dodecyl sulfate. Blots were blocked for 1 h in blocking buffer (5% milk in 0.1% Tween-20 PBS) and incubated with primary antibodies: anti-ac-H3 (1:2000, ab47915); anti-ac-H4 (1:2000; ab177790); anti-H3 (1:2000; ab1791); anti-H4 (1:2000; ab10158); anti-H3K14ac (1:4000; ab52946); anit-BRPF1 (1:1000; Thermo Fisher); anti-BRPF2 (1:2000; ab71877) in blocking buffer overnight at 4 °C. After five washes with 0.1% Tween-20 PBS the blots were incubated with goat-anti-rabbit (IR800 conjugated, LiCor no. 926-32211) and donkey anti-mouse (IR 680, LiCor no. 926-68072) antibodies (1:5000) in Odyssey blocking buffer (LiCor) for 1 h at room temperature and washed five times with 0.1% Tween-20 PBS. The signal was read on an Odyssey scanner (LiCor) at 800 and 700 nm.

three TNBC lines = assay: Combinatorial screen of BRD inhibitors with or without BAY-876 (confluency); format: cell-based, human
Protocol: Fig. 6 BRD inhibitors leverage metabolic adaptations induced by glucose transporter I (GLUT1) inhibition in TNBC. a BRD inhibitor screening across ten TNBC cell lines. Cells were treated with indicated BRD inhibitors at 3 μM for 7 days. Confluency was measured using an IncuCyte ZOOM live cell imaging device. Data shown are mean ± s.d. of n = 4 independent cell culture grown and treated cells. A two-sided Student’s t test was used to derive the p-values. b SLC2A1 gene expression in the The Cancer Genome Atlas (TCGA) breast datasets. The cohorts were divided into TNBCs (red) and non-TNBCs (blue) according to PAM50 classification. Gene expression is reported as median-centered expression log2 values. The number of patients (n) per group is indicated. P-values were determined using a Wilcoxon's rank-sum test. c Glucose uptake in MDA-MB-436 cells in response to BAY-876 treatment relative to vehicle. MDA-MB-436 cells were treated with dimethyl sulfoxide (DMSO) or 3 µM BAY-876 for 5 days. Graph indicates mean, error bars denote s.d. from three independent assays and p-value was computed using the Benjamini-Hochberg t test; ***p < 0.001. d Effects of BAY-876 treatment on the intracellular acetyl-CoA level. Graph indicates mean, error bars denote s.d. from three independent assays and p-value was computed using the Benjamini-Hochberg t test; ***p < 0.001. e Effects of BAY-876 treatment on intracellular NAD^+/NADH level. Graph indicates the mean, error bars denote s.d. from three independent assays and p-value computed using the Benjamini-Hochberg t test; **p < 0.01. f Immunoblot analysis of H3 and H4 acetylation in MDA-MB-436 cells before and after BAY-876 treatment. P-value computed using the Benjamini-Hochberg t test; ***p < 0.001. g Cell growth effects of BAY-876 treatment on three representative cell lines. n.s. not significant. h Combinatorial screening of BRD inhibitors with or without 3 μM BAY-876 across ten TNBC cell lines. Cell confluency was obtained from the endpoint Incucyte scanning. (Left) Heatmap of the combinatorial screening results; (Right) Cell confluency after treatment with three potential BRDi candidates at 3 μM in the presence or absence of 3 μM BAY-876 in three representative cell lines. Graph indicates mean, error bars denote s.d. from three independent assays and p-values were computed using the Benjamini-Hochberg t test; **p < 0.01; ***p < 0.001. Raw data images are available in Supplementary Fig. 4
TNBC cell lines were seeded in sterile, transparent 384-well plates at 500 cells per well in 50 µl media. Chemical probes were delivered in dimethyl sulfoxide (DMSO). Cell confluency at 7 days was evaluated using an Incucyte ZOOM live cell imaging device (Essen Bioscence) and analyzed with the Incucyte ZOOM (2016A) software based on phase contrast image.

BAZ1B = molecular target: T6, BAZ1B (Homo sapiens, UniProt Q9UIG0); assay: BROMOscan ligand-binding assay
T6 sequence (Q9UIG0 1339-1443 limits assumed): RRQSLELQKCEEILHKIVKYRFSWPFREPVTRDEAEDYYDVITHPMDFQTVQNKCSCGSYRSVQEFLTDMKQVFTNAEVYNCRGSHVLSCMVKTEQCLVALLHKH
Excerpt: BROMOscan is a binding assay based on the well-known KINOMEscan technology. This assay measures the binding of a DNA-tagged bromodomain to an immobilized BRD ligand. If an inhibitor is present, it will compete with the bromodomain binding to the immobilized ligand, resulting in reduction of a quantitative PCR (qPCR) signal in a dose-dependent manner.

[1] = KD (BROMOscan), sheet prints no unit (nM)
[2] = KD, BROMOscan Gene Symbol BAZ1B

T2 sequence (P15056 457-717 limits assumed, species assumed): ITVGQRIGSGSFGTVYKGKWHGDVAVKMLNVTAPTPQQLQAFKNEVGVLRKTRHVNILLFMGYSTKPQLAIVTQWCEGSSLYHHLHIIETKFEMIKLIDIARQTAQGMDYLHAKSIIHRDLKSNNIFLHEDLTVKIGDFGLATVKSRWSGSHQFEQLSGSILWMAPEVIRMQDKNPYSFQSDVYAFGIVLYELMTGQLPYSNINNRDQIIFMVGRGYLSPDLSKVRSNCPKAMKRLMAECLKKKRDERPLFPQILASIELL
T1 sequence (P34947 186-448 limits assumed, species assumed): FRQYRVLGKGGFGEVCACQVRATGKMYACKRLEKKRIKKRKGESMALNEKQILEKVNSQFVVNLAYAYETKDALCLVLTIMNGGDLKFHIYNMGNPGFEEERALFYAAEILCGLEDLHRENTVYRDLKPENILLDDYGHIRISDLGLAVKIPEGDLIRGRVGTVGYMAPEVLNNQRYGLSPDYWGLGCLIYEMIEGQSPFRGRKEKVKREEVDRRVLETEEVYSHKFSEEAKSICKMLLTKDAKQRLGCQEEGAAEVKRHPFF
T4 sequence (Q92793 1085-1192 limits assumed): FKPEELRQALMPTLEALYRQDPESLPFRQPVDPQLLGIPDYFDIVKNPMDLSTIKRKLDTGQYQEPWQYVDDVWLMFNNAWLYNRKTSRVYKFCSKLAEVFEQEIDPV

SMILES: Cc1cc2c(cc1N1C(=O)c3cccc4c(CCCO)ccc(c34)C1=O)n(C)c(=O)n2C [BAY-299]
- Kd (BRPF2; ref 13 (suppl.)): 44 nM
- Temperature shift (GPRK5): -0.3 Kelvin
- Temperature shift (BRAF): 0.1 Kelvin
- Temperature shift (PHGK2): 0.0 Kelvin
- Kd (CBP; ref 13 (suppl.), read-out: KD (nM), off target CBP): 1390 nM

SMILES: COc1cc(Cl)c(C(=O)N[C@@H](CN[C@H]2CC[C@@H](N)CC2)Cc2ccc(C#N)cc2)cc1-c1ccc(CN[C@H](C)c2ccc(C)cc2)o1 [BAY-850]
- Kd (ATAD2A): 120 nM

SMILES: Cc1c(NC(=O)c2cc(C(N)=O)nc3cc(F)ccc23)c(C(F)(F)F)nn1Cc1ccc(C#N)cc1 [BAY-876]
- global levels of acetylated histone H3 (ac-H3) (MDA-MB-436 cells): reduction
- cell growth, treatment alone (three TNBC lines; 3 μM alone): no effect

SMILES: CCCOc1ccn2c(C(C)=O)cc(-c3ccccc3S(C)(=O)=O)c2c1 [GSK2801]
- Kd (BAZ1B; [1]): > 30000 nM
- Kd (BAZ1B; [2]): > 100000 nM

SMILES: CCC(=O)N1CCOc2c(cc(-c3ccc(OC)c(OC)c3)cc2OCC2CCCN(C)C2)C1 (stereo not drawn) [I-CBP112]
- Kd (BAZ1B; [1]): > 30000 nM
- Kd (BAZ1B; [2]): > 100000 nM
- Temperature shift (GPRK5): -0.4 Kelvin
- Temperature shift (BRAF): -0.1 Kelvin
- Temperature shift (PHGK2): 0.1 Kelvin
- Kd (CBP; ref 9 (suppl.), read-out: KD (nM), CBP): 151 nM

SMILES: Cc1nnc2c3ccccc3c(N[C@@H](C)[C@H](c3ccccc3)N(C)C)nn12 [L-Moses]
- Temperature shift (GPRK5): -0.3 Kelvin
- Temperature shift (BRAF): -0.1 Kelvin
- Temperature shift (PHGK2): -0.1 Kelvin

SMILES: COc1cc2c(cc1NS(=O)(=O)c1ccc(Br)cc1C)n(C)c(=O)n2C [OF-1]
- Kd (BRPF2; ref 11 (suppl.)): 505 nM
- combination effect with BAY-876 across the three cell lines (three TNBC lines; 3 μM probe + 3 μM BAY-876): strong synergistic effect across all three cell lines
- viability in combination with BAY-876 (three TNBC lines; 3 μM probe + 3 μM BAY-876): significant decrease in viability

Next, values leading:

- Kd (BAZ1B; [1]): > 30000 nM
- Kd (BAZ1B; KD, BAZ1B): > 100000 nM
SMILES: O=C(C=CN1CC2CC1CN2c1ccccn1)c1ccccc1O (stereo not drawn) [PFI-3]

- Kd (BAZ1B; [1]): > 30000 nM
- Kd (BAZ1B; KD, BROMOscan, BAZ1B): > 100000 nM
SMILES: COc1ccc(CCc2nc3cc(-c4c(C)noc4C)ccc3n2C[C@H](C)N2CCOCC2)cc1Cl [SGC-CBP30]

- Kd (BAZ1B; KD, BAZ1B): > 1.4e+07 nM
SMILES: O=C(O)c1ccccc1O [Salicylic Acid]
